What all share (assay): Fluorescence Polarization Assay
In assay [1] the target is Galectin-7 (Homo sapiens, UniProt P47929).
In assay [2] the target is Galectin-1 [C3S] (Human, UniProt P09382, C3S).
Assay [3] has as its target Galectin-3 (Homo sapiens, UniProt P17931).

The values that follow come from BindingDB's records for doi:10.1002/cbic.201600673 (Université de Nantes, 2017).

As a reminder, the Kd is a measure of binding affinity in units of concentration.

Galectin-3, sequence (P17931 whole entry): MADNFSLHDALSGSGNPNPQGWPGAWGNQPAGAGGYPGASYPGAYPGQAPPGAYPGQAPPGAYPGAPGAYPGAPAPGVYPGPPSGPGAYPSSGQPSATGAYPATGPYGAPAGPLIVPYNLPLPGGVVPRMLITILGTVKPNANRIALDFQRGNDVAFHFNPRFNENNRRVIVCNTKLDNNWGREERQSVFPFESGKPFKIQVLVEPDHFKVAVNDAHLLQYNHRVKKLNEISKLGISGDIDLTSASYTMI
Galectin-7, sequence (P47929 whole entry): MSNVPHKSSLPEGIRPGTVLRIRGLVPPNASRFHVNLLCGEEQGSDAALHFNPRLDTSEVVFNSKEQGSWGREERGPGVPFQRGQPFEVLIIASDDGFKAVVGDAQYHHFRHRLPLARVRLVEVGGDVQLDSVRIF
Galectin-1 [C3S], sequence (P09382 2-135 C3S limits assumed): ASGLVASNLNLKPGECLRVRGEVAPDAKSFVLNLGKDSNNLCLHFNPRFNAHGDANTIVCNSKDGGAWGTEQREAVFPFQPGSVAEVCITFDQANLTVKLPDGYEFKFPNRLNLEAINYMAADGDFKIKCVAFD

For the compound `OCC1O[C@@H](S[C@@H]2OC(CO)[C@H](O)C(n3cc(-c4cccc(F)c4)nn3)C2O)C(O)C(n2cc(-c3cccc(F)c3)nn2)[C@H]1O` (stereo not given in full) [TD139], in assay [1] (4 °C), the Kd amounted to 32 µM.

As for `COc1cccc(C(=O)CC2C(O)[C@H](O[C@@H]3OC(CO)[C@H](O)C(OCc4ccc5ccccc5c4)C3O)C(CO)O[C@H]2OCCN=[N+]=[N-])c1` (stereo partly drawn) [[3-O-(2-naphthyl)methyl-β-D-galactopyranosyl]-(1-4)-2-deoxy-2-(3-methoxybenzamido)-β-D-glucopyranoside (11)], the Kd in assay [2] (4 °C) was determined as 27 µM; in assay [3] (4 °C) it was 0.59 µM; in assay [3] (25 °C), 2.99 µM; in assay [1] (4 °C), 90 µM.

For `COc1cccc(COC2C(O)[C@H](O[C@@H]3C(CO)O[C@@H](N=[N+]=[N-])C(NC(=O)c4cccc(OC)c4)C3O)OC(CO)[C@@H]2O)c1` (stereo partly drawn) [4-O-[3-O-(3-methoxybenzyl)-β-D-galactopyranosyl)]-1-azido-1,2-dideoxy-2-(3-methoxybenzamido)-β-D-glucopyranose (1)], the Kd in assay [2] (4 °C) is 23 µM; in assay [3] (4 °C), 0.66 µM; in assay [3] (25 °C), 3.27 µM; in assay [1] (4 °C), 86 µM.

In the case of `COc1cccc(C(=O)NC2C(O)[C@H](O[C@@H]3OC(CO)[C@H](O)C(OCc4ccc5ccccc5c4)C3O)C(CO)O[C@H]2OCCNC(=O)CCCCCN2C(=O)C=CC2=O)c1` (stereo partly drawn) [2-[6-Maleimide)caproyl]ethyl [3-O-(2-naphthyl)methyl-β-D-galactopyranosyl]-(1-4)-2-deoxy-2-(3-methoxybenzamido)-β-D-glucopyranoside (13)], the Kd in assay [2] (4 °C) amounted to 16 µM; in assay [2] (25 °C), 43 µM; in assay [3] (4 °C), 0.014 µM; in assay [3] (25 °C) it was 0.082 µM; in assay [1] (4 °C), 21 µM; in assay [1] (25 °C) it was 129 µM.
